# Test results taken from US20240148821A1, “PHARMACEUTICAL USE OF CYCLIC PEPTIDE COMPOUND” (CHUGAI SEIYAKU KABUSHIKI KAISHA, priority 2021, published 2024).
# Numbered stars: 1 amine (or outer) side, 2 acyl side, 3 side chain; on linkers, the order of the positions; unused ones are H or OH. Bridge positions count the residues as written; N and C are the ends. Square brackets hold non-standard residues; d marks the D form. Peptide text beside a SMILES is read from it. * marks the point of attachment. hPhe(3-Cl-4-CF3) = N[C@@H](CCc1ccc(C(F)(F)F)c(Cl)c1)C(=O)O; hPhe(3-F,4-CF3) = N[C@@H](CCc1ccc(C(F)(F)F)c(F)c1)C(=O)O; NEtPhe(4-CF3) = CCN[C@@H](Cc1ccc(C(F)(F)F)cc1)C(=O)O; NMePhe(4-CF3) = CN[C@@H](Cc1ccc(C(F)(F)F)cc1)C(=O)O; hPhe(4-CF3) = N[C@@H](CCc1ccc(C(F)(F)F)cc1)C(=O)O; NMePhe(4-Me) = CN[C@@H](Cc1ccc(C)cc1)C(=O)O; NMedβ3hAla = C[C@H](CC(=O)[*:2])N(C)[*:1]; NMeGly(cPent) = CN[C@H](C(=O)O)C1CCCC1; Phe(3-I) = N[C@@H](Cc1cccc(I)c1)C(=O)O; NMeGly(cBu) = CN[C@H](C(=O)O)C1CCC1; NMeCha = CN[C@@H](CC1CCCCC1)C(=O)O; cisHyp = O=C(O)[C@@H]1C[C@H](O)CN1; Hyp = O=C(O)[C@@H]1C[C@@H](O)CN1; NMeChg = CN[C@H](C(=O)O)C1CCCCC1; NMeI = CC[C@H](C)[C@H](NC)C(=O)O; Gly(cPr) = N[C@H](C(=O)O)C1CC1; NMeD = CN[C@@H](CC(=O)O)C(=O)O; NMeL = CN[C@@H](CC(C)C)C(=O)O; NMeNva = CCC[C@H](NC)C(=O)O; NMeV = CN[C@H](C(=O)O)C(C)C; d(β3hA) = C[C@@H](N)CC(=O)O; Azetidin(1-yl) = C1CN(*)C1; NMeS = CN[C@@H](CO)C(=O)O; NMeA = CN[C@@H](C)C(=O)O; NMeAib = CNC(C)(C)C(=O)O; Piperidide = C1CCN(*)CC1; Pra = C#CC[C@H](N)C(=O)O; Pyrrolidide = C1CCN(*)C1; dNMeA = CN[C@H](C)C(=O)O; Ac5c = NC1(C(=O)O)CCCC1; Aze = O=C(O)[C@@H]1CCN1; Ac4c = NC1(C(=O)O)CCC1; CH2CMe2OH = CC(C)(O)C*; Aib = CC(C)(N)C(=O)O; Sar = CNCC(=O)O
# Target: protein-protein interaction between Kras and SOS1 (biotin-tagged human Kras loaded with GDP, His-tagged human SOS1) (Homo sapiens (Human), UniProt P01116, G12D)
# Assay: Protein-protein interaction inhibition between Kras and SOS1 (KrasG12D-SOS PPI) using AlphaScreen;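 further: kras produced in E. coli, Ni-coupled donor beads and streptavidin acceptor beads, excitation 680 nm with emission detected at 520–620 nm via singlet oxygen transfer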
# Assay type: biochemical
# Details: not given
row,Structure (SMILES),IC50 [nM]
1,CC[C@H](C)[C@@H]1NC(=O)[C@H](CC(C)C)N(C)C(=O)C[C@@H](C(=O)N(C)C)N(C)C(=O)[C@H](C2CCCC2)N(C)C(=O)C2(CCCC2)NC(=O)[C@H](CC(=O)N2CCCC2)N(C)C(=O)[C@H](CCc2ccc(C(F)(F)F)c(Cl)c2)NC(=O)CN(C)C(=O)[C@H](CC2CCCCC2)N(C)C(=O)[C@@H]2CCN2C(=O)[C@H](C)N(C)C1=O [Compound 2097] ([NMeL]I[NMeA][Aze][NMeCha][Sar][hPhe(3-Cl-4-CF3)][NMeD](Pyrrolidide)[Ac5c][NMeGly(cPent)][NMeD]-NMe2; lactam N-11),0.57

# Same assay, conditions: AlphaScreen; biotin-tagged human Kras loaded with GDP, His-tagged human SOS1; read-out: KRAS G12D-SOS PPI IC50
row,Structure (SMILES),IC50 [nM]
1,CC[C@H](C)[C@@H]1NC(=O)[C@H](CC(C)C)N(C)C(=O)C[C@@H](C(=O)N(C)C)N(C)C(=O)[C@H]([C@@H](C)CC)N(C)C(=O)CNC(=O)[C@@H]2CCCN2C(=O)[C@H](CCc2ccc(C(F)(F)F)c(Cl)c2)NC(=O)CN(C)C(=O)[C@H](Cc2ccc(C)cc2)N(C)C(=O)[C@@H]2CCN2C(=O)[C@H](C)N(C)C1=O [Compound 828] ([NMeL]I[NMeA][Aze][NMePhe(4-Me)][Sar][hPhe(3-Cl-4-CF3)]PG[NMeI][NMeD]-NMe2; lactam N-11),40
2,CC[C@H](C)[C@@H]1NC(=O)[C@H](CC(C)C)N(C)C(=O)C[C@@H](C(=O)N2CCCCC2)N(C)C(=O)[C@H](C2CCCCC2)N(C)C(=O)C2(CCCC2)NC(=O)[C@H](COCC(C)(C)O)N(C)C(=O)[C@H](CCc2ccc(C(F)(F)F)c(Cl)c2)NC(=O)CN(C)C(=O)[C@H](CC2CCCCC2)N(C)C(=O)CN(C)C(=O)CN(C)C1=O [Compound 789] ([NMeL]I[Sar][Sar][NMeCha][Sar][hPhe(3-Cl-4-CF3)][NMeS](CH2CMe2OH)[Ac5c][NMeChg][NMeD]-Piperidide; lactam N-11),0.61
3,"CC[C@H](C)[C@@H]1NC(=O)[C@H](CC(C)C)N(C)C(=O)C[C@@H](C(=O)N2CCCCC2)N(C)C(=O)[C@H](C(C)C)N(C)C(=O)C2(CCCC2)NC(=O)[C@@H]2CCCN2C(=O)[C@H](CCc2ccc(C(F)(F)F)c(F)c2)NC(=O)CN(C)C(=O)[C@H](CC2CCCCC2)N(C)C(=O)[C@@H]2CCN2C(=O)[C@H](C)N(C)C1=O [Compound 1040] ([NMeL]I[NMeA][Aze][NMeCha][Sar][hPhe(3-F,4-CF3)]P[Ac5c][NMeV][NMeD]-Piperidide; lactam N-11)",14
4,"CC[C@H](C)[C@@H]1NC(=O)[C@H](CC(C)C)N(C)C(=O)C[C@@H](C(=O)N(C)C)N(C)C(=O)[C@H](C2CCCC2)N(C)C(=O)C2(CCCC2)NC(=O)[C@@H]2CCCN2C(=O)[C@H](CCc2ccc(C(F)(F)F)c(F)c2)NC(=O)CN(C)C(=O)[C@H](CC2CCCCC2)N(C)C(=O)[C@@H]2CCN2C(=O)[C@H](C)NC1=O [Compound 1164] ([NMeL]IA[Aze][NMeCha][Sar][hPhe(3-F,4-CF3)]P[Ac5c][NMeGly(cPent)][NMeD]-NMe2; lactam N-11)",1.4
5,CC[C@H](C)[C@@H]1NC(=O)[C@H](C)N(C)C(=O)C[C@@H](C)NC(=O)[C@H](C(C)C)N(C)C(=O)C2(CCCC2)NC(=O)[C@@H]2CCCN2C(=O)[C@H](CCc2ccc(C(F)(F)F)c(Cl)c2)NC(=O)[C@@H](C)N(C)C(=O)[C@H](CC2CCCCC2)N(C)C(=O)[C@@H]2CCN2C(=O)[C@H](CC(C)C)N(C)C1=O [Compound 2018] (cyclo([Ac5c][NMeV][d(β3hA)][NMeA]I[NMeL][Aze][NMeCha][dNMeA][hPhe(3-Cl-4-CF3)]P)),320
6,CCO[C@@H]1C[C@H]2C(=O)NC3(CCC3)C(=O)N(C)[C@@H](C3CCCCC3)C(=O)N(C)[C@H](C)CC(=O)N(C)[C@@H](CC(C)C)C(=O)N[C@@H]([C@@H](C)CC)C(=O)N(C)[C@@H](C)C(=O)N3CC[C@H]3C(=O)N(CC)[C@@H](Cc3ccc(C(F)(F)F)cc3)C(=O)N(C)CC(=O)N[C@@H](CCc3ccc(C(F)(F)F)c(Cl)c3)C(=O)N2C1 [Compound 296] (cyclo([Ac4c][NMeChg][NMedβ3hAla][NMeL]I[NMeA][Aze][NEtPhe(4-CF3)][Sar][hPhe(3-Cl-4-CF3)][Hyp](Et))),55
7,CC[C@H](C)[C@@H]1NC(=O)[C@H](CC(C)C)N(C)C(=O)C[C@@H](C)NC(=O)[C@H](C2CCCC2)N(C)C(=O)C2(CCCC2)NC(=O)[C@@H]2CCCN2C(=O)[C@H](CCc2ccc(C(F)(F)F)c(Cl)c2)NC(=O)CN(C)C(=O)[C@H](Cc2ccc(C(F)(F)F)cc2)N(C)C(=O)[C@@H]2CCN2C(=O)CN(C)C1=O [Compound 1496] (cyclo([Ac5c][NMeGly(cPent)][d(β3hA)][NMeL]I[Sar][Aze][NMePhe(4-CF3)][Sar][hPhe(3-Cl-4-CF3)]P)),2
8,C#CC[C@@H]1NC(=O)[C@H](Cc2cccc(I)c2)NC(=O)CN(C)C(=O)[C@H](Cc2ccc(C(F)(F)F)cc2)N(C)C(=O)CN(C)C(=O)CN(C)C(=O)[C@H]([C@@H](C)CC)NC(=O)[C@H](CC(C)C)N(C)C(=O)C[C@@H](C)N(C)C(=O)[C@H](CC(C)C)NC(=O)C(C)(C)N(C)C1=O [Compound 1406] (cyclo(I[Sar][Sar][NMePhe(4-CF3)][Sar][Phe(3-I)][Pra][NMeAib]L[NMedβ3hAla][NMeL])),160
9,CC[C@H](C)[C@@H]1NC(=O)[C@H](CC(C)C)N(C)C(=O)C[C@@H](C(=O)N2CCCCC2)N(C)C(=O)[C@H](C(C)C)N(C)C(=O)C2(CCCC2)NC(=O)[C@@H]2CCCN2C(=O)[C@H](CCc2ccc(C(F)(F)F)c(Cl)c2)NC(=O)CN(C)C(=O)[C@H](CC2CCCCC2)N(C)C(=O)[C@@H]2CCN2C(=O)[C@H](C)N(C)C1=O [Compound 476] ([NMeL]I[NMeA][Aze][NMeCha][Sar][hPhe(3-Cl-4-CF3)]P[Ac5c][NMeV][NMeD]-Piperidide; lactam N-11),4.1
10,CC[C@H](C)[C@@H]1NC(=O)[C@H](C)N(C)C(=O)C[C@@H](C)NC(=O)[C@H](CC(C)C)N(C)C(=O)C(C)(C)NC(=O)[C@H](CC(C)C)N(C)C(=O)[C@H](CCc2ccc(C(F)(F)F)cc2)NC(=O)CN(C)C(=O)[C@H](CC2CCCCC2)N(C)C(=O)CN(C)C(=O)CN(C)C1=O [Compound 219] (cyclo([Aib][NMeL][d(β3hA)][NMeA]I[Sar][Sar][NMeCha][Sar][hPhe(4-CF3)][NMeL])),73
11,CC[C@H](C)[C@@H]1NC(=O)[C@H](CC(C)C)N(C)C(=O)C[C@@H](C(=O)N2CCC2)N(C)C(=O)[C@H](C(C)C)N(C)C(=O)C2(CCCC2)NC(=O)[C@@H]2CCCN2C(=O)[C@H](CCc2ccc(C(F)(F)F)c(Cl)c2)NC(=O)CN(C)C(=O)[C@H](CC2CCCCC2)N(C)C(=O)[C@@H]2CCN2C(=O)[C@H](C)N(C)C1=O [Compound 256] ([NMeL]I[NMeA][Aze][NMeCha][Sar][hPhe(3-Cl-4-CF3)]P[Ac5c][NMeV][NMeD]-{Azetidin(1-yl)}; lactam N-11),0.98
12,CCC[C@H]1C(=O)N2CC[C@H]2C(=O)N(C)[C@@H](CC2CCCCC2)C(=O)N(C)CC(=O)N[C@@H](CCc2ccc(C(F)(F)F)c(Cl)c2)C(=O)N2CCC[C@H]2C(=O)NC2(CCCC2)C(=O)N(C)[C@@H](C(C)C)C(=O)N(C)[C@H](C(=O)N2CCCCC2)CC(=O)N(C)[C@@H](CC(C)C)C(=O)N[C@@H]([C@@H](C)CC)C(=O)N1C [Compound 1601] ([NMeL]I[NMeNva][Aze][NMeCha][Sar][hPhe(3-Cl-4-CF3)]P[Ac5c][NMeV][NMeD]-Piperidide; lactam N-11),22
13,"CC[C@H](C)[C@@H]1NC(=O)[C@H](CC(C)C)N(C)C(=O)C[C@@H](C(=O)N2CCCCC2)N(C)C(=O)[C@H](C2CCCCC2)N(C)C(=O)C2(CCCC2)NC(=O)[C@@H]2C[C@H](O)CN2C(=O)[C@H](CCc2ccc(C(F)(F)F)c(Cl)c2)NC(=O)CN(C)C(=O)[C@H](CC2CCCCC2)N(C)C(=O)CN(C)C(=O)CN(C)C1=O [Compound 1374, (3S,9S,18S,21S,25S,28S,34S,36S)-3-[2-[3-chloro-4-(trifluoromethyl)phenyl]ethyl]-28-cyclohexyl-9-(cyclohexylmethyl)-36-hydroxy-21-isobutyl-7,10,13,16,22,26,29-heptamethyl-18-[(1S)-1-methylpropyl]-25-(piperidine-1-carbonyl)spiro[1,4,7,10,13,16,19,22,26,29,32-undecazabicyclo[32.3.0]heptatriacontane-31,1′-cyclopentane]-2,5,8,11,14,17,20,23,27,30,33-undecone] ([NMeL]I[Sar][Sar][NMeCha][Sar][hPhe(3-Cl-4-CF3)][cisHyp][Ac5c][NMeChg][NMeD]-Piperidide; lactam N-11)",0.54
14,CC(C)C[C@H]1C(=O)N[C@@H](C2CC2)C(=O)N(C)[C@@H](C)C(=O)N2CC[C@H]2C(=O)N(C)[C@@H](CC2CCCCC2)C(=O)N(C)CC(=O)N[C@@H](CCc2ccc(C(F)(F)F)c(Cl)c2)C(=O)N2CCC[C@H]2C(=O)NC2(CCCC2)C(=O)N(C)[C@@H](C(C)C)C(=O)N[C@H](C)CC(=O)N1C [Compound 490] (cyclo([Ac5c][NMeV][d(β3hA)][NMeL][Gly(cPr)][NMeA][Aze][NMeCha][Sar][hPhe(3-Cl-4-CF3)]P)),240
15,CO[C@H](C)[C@@H]1NC(=O)[C@H](CC(C)C)N(C)C(=O)C[C@@H](C(=O)N2CCCCC2)N(C)C(=O)[C@H](C(C)C)N(C)C(=O)C2(CCCC2)NC(=O)[C@@H]2CCCN2C(=O)[C@H](CCc2ccc(C(F)(F)F)c(Cl)c2)NC(=O)CN(C)C(=O)[C@H](CC2CCCCC2)N(C)C(=O)[C@@H]2CCN2C(=O)[C@H](C)N(C)C1=O [Compound 497] ([NMeL]T(Me)[NMeA][Aze][NMeCha][Sar][hPhe(3-Cl-4-CF3)]P[Ac5c][NMeV][NMeD]-Piperidide; lactam N-11),4.3
16,CC[C@H](C)[C@@H]1NC(=O)[C@H](C2CCC2)N(C)C(=O)C[C@@H](C(=O)N2CCCCC2)N(C)C(=O)[C@H]([C@@H](C)CC)N(C)C(=O)C2(CCCC2)NC(=O)[C@@H]2CCCN2C(=O)[C@H](CCc2ccc(C(F)(F)F)c(Cl)c2)NC(=O)CN(C)C(=O)[C@H](CC2CCCCC2)N(C)C(=O)[C@@H]2CCN2C(=O)[C@H](C)N(C)C1=O [Compound 959] ([NMeGly(cBu)]I[NMeA][Aze][NMeCha][Sar][hPhe(3-Cl-4-CF3)]P[Ac5c][NMeI][NMeD]-Piperidide; lactam N-11),1.4
